Source: ChEMBL document CHEMBL5247642, “Structural Optimization of Fibroblast Growth Factor Receptor Inhibitors for Treating Solid Tumors” (J Med Chem, 2023)
In brackets after ≈: the same amount, converted by molar mass. Activity calls are given as the source filed them. The calls are words filed in the database; no cut-off is given here.

Columns and labels:
[1] = biological target: Fibroblast growth factor receptor 2 (Homo sapiens, UniProt P21802); assay: Inhibition of FGFR2 (unknown origin) using Poly (Glu,Tyr) 4:1 as substrate incubated for 60 mins in presence of ATP by ELISA analysis
[2] = biological target: Fibroblast growth factor receptor 3 (Homo sapiens, UniProt P22607); assay: Inhibition of FGFR3 (unknown origin) using Poly (Glu,Tyr) 4:1 as substrate incubated for 60 mins in presence of ATP by ELISA analysis
[3] = Solubility of compound in PBS at pH 7.4 at 1 to 100 microg/ml by laser nephelometry analysis; assay type: physicochemical; conditions: dose 1-100 µg/ml
[4] = Stability in rat whole blood assessed as parent compound remaining measured upto 5 hrs by LC-MS/MS analysis; assay type: ADME, tissue-based
[5] = GSH reactivity in PBS buffer assessed as percentage peak area ratio incubated for 24 hrs by LC-MS/MS analysis; assay type: physicochemical
[6] = biological target: Fibroblast growth factor receptor (Homo sapiens) (UniProt P22607+P11362+P22455+P21802); assay: Inhibition of FGFR signalling in human SNU-16 assessed as inhibition of PLCgamma phosphorylation at 0.1 nM incubated for 2 hrs by Western blot analysis; assay type: cell-based
[7] = biological target: Fibroblast growth factor receptor 1 (Homo sapiens, UniProt P11362, V561M); assay: Inhibition of human recombinant FGFR1 V561M mutant (456 to 765 residues) using GGEEEEYFELVKK as substrate incubated for 40 mins presence of [gamma-33P]-ATP by radiometric based scintillation counter assay
[8] = biological target: Fibroblast growth factor receptor 2 (Homo sapiens, UniProt P21802, N549H); assay: Inhibition of human recombinant FGFR2 N549H mutant (456 to 770 residues) using GGEEEEYFELVKK as substrate incubated for 40 mins presence of [gamma-33P]-ATP by radiometric based scintillation counter assay
NCI-H1581 [9] = assay: Antiproliferative activity against human NCI-H1581 cells expressing FGFR1 assessed as reduction in cell viability measured after 72 hrs; assay type: functional, cell-based; conditions: NCI-H1581, 72 h
NCI-H716 = assay: Antiproliferative activity against human NCI-H716 cells expressing FGFR2 assessed as reduction in cell viability measured after 72 hrs; assay type: functional, cell-based; conditions: NCI-H716, 72 h
NCI-H2228 = assay: Antiproliferative activity against human NCI-H2228 cells assessed as reduction in cell viability measured after 72 hrs; assay type: functional, cell-based; conditions: NCI-H2228, 72 h
NCI-H1792 = assay: Antiproliferative activity against human NCI-H1792 cells assessed as reduction in cell viability measured after 72 hrs; assay type: functional, cell-based; conditions: NCI-H1792, 72 h
NCI-H1666 = assay: Antiproliferative activity against human NCI-H1666 cells assessed as reduction in cell viability measured after 72 hrs; assay type: functional, cell-based; conditions: NCI-H1666, 72 h
NCI-H727 = assay: Antiproliferative activity against human NCI-H727 cells assessed as reduction in cell viability measured after 72 hrs; assay type: functional, cell-based; conditions: NCI-H727, 72 h
NCI-H226 = assay: Antiproliferative activity against human NCI-H226 cells assessed as reduction in cell viability measured after 72 hrs; assay type: functional, cell-based; conditions: NCI-H226, 72 h
HCC4006 = assay: Antiproliferative activity against human HCC4006 cells assessed as reduction in cell viability measured after 72 hrs; assay type: functional, cell-based; conditions: HCC4006, 72 h
Hs746T = assay: Antiproliferative activity against human Hs746T cells assessed as reduction in cell viability measured after 72 hrs; assay type: functional, cell-based
ASPC1 = assay: Antiproliferative activity against human ASPC1 cells assessed as reduction in cell viability measured after 72 hrs; assay type: functional, cell-based; conditions: ASPC1, 72 h
BXPC-3 = assay: Antiproliferative activity against human BXPC-3 cells assessed as reduction in cell viability measured after 72 hrs; assay type: functional, cell-based; conditions: BXPC-3, 72 h
A549 = assay: Antiproliferative activity against human A549 cells assessed as reduction in cell viability measured after 72 hrs; assay type: functional, cell-based; conditions: A549, 72 h
NCI-H1299 = assay: Antiproliferative activity against human NCI-H1299 cells assessed as reduction in cell viability measured after 72 hrs; assay type: functional, cell-based; conditions: NCI-H1299, 72 h
[10] = AUC (0 to t) in CD-1 mouse at 1 mg/kg, iv measured after 24 hrs by LC-MS/MS analysis; assay type: ADME, organism-based; set-up: time 24 hrs, dose 1 mg/kg, route iv; conditions: in vivo
[11] = AUC (0 to infinity) in CD-1 mouse at 3 mg/kg, po measured after 24 hrs by LC-MS/MS analysis; assay type: ADME, organism-based; set-up: time 24 hrs, dose 3 mg/kg, route po; conditions: in vivo
[12] = Half life in CD-1 mouse at 3 mg/kg, po measured after 24 hrs by LC-MS/MS analysis; assay type: ADME, organism-based; conditions: in vivo
NCI-H1581 [13] = assay: Antitumor activity against human NCI-H1581 cells xenografted in po dosed nude mouse assessed as tumor growth inhibition administered once daily for 11 days by microcaliper analysis; assay type: functional, organism-based; conditions: dose 200-400 mg/kg, time 11.0 day
SNU-16 = assay: Antitumor activity against human SNU-16 cells xenografted in nude mouse assessed as tumor growth inhibition at 200 mg/kg, po administered once daily for 21 days by microcaliper analysis relative to control; assay type: functional; set-up: scale not given: the % may be the effect or the level left; conditions: time 21 day
[14] = biological target: Fibroblast growth factor receptor 1 (Homo sapiens, UniProt P11362); conditions: dose 100.0 nM, time 60.0 min
Chain of Fibroblast growth factor receptor 1 (Homo sapiens, UniProt P11362) (P11362 22-822 limits assumed): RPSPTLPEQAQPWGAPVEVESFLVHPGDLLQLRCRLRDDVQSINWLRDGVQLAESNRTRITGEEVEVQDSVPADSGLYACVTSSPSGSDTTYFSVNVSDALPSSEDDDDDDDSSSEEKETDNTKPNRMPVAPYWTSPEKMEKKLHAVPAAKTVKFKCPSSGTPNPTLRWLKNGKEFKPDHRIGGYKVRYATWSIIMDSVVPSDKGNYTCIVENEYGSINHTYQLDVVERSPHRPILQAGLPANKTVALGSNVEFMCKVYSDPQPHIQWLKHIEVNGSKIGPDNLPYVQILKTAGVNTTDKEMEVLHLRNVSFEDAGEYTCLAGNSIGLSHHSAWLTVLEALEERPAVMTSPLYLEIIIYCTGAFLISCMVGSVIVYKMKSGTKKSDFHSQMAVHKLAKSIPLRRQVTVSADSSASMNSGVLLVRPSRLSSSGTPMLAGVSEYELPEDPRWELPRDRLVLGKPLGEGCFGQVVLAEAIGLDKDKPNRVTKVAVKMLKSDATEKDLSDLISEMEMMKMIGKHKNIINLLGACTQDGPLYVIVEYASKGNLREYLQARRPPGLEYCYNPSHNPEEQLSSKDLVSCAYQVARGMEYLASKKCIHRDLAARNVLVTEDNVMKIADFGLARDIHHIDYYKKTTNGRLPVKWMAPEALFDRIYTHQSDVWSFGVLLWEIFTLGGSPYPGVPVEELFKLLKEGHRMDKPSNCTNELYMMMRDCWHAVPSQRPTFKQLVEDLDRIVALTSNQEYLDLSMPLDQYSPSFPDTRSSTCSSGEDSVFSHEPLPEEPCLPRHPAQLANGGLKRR

Chain of Fibroblast growth factor receptor 2 (Homo sapiens, UniProt P21802, N549H) (P21802 22-821 N549H limits assumed): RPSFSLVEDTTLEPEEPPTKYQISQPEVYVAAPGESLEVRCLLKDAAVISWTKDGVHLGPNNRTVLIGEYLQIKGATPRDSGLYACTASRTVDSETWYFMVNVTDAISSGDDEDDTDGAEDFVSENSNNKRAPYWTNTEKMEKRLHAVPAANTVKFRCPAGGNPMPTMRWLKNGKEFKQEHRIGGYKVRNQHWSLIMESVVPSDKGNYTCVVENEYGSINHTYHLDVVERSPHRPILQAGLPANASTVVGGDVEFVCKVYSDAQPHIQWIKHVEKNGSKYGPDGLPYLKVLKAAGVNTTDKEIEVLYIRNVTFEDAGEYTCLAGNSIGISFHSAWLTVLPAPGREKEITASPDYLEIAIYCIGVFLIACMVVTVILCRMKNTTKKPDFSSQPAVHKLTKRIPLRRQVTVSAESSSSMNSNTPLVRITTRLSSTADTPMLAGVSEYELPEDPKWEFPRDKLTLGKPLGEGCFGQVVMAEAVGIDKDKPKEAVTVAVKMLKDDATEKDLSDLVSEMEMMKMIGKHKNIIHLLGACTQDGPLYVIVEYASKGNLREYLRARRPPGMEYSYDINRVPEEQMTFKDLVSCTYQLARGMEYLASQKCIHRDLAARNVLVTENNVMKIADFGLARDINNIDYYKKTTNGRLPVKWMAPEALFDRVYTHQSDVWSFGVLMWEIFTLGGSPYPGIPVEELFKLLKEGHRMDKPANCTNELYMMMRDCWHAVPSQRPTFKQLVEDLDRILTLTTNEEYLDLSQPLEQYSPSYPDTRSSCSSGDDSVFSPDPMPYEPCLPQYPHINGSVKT
Chain of Fibroblast growth factor receptor 2 (Homo sapiens, UniProt P21802) (P21802 whole entry): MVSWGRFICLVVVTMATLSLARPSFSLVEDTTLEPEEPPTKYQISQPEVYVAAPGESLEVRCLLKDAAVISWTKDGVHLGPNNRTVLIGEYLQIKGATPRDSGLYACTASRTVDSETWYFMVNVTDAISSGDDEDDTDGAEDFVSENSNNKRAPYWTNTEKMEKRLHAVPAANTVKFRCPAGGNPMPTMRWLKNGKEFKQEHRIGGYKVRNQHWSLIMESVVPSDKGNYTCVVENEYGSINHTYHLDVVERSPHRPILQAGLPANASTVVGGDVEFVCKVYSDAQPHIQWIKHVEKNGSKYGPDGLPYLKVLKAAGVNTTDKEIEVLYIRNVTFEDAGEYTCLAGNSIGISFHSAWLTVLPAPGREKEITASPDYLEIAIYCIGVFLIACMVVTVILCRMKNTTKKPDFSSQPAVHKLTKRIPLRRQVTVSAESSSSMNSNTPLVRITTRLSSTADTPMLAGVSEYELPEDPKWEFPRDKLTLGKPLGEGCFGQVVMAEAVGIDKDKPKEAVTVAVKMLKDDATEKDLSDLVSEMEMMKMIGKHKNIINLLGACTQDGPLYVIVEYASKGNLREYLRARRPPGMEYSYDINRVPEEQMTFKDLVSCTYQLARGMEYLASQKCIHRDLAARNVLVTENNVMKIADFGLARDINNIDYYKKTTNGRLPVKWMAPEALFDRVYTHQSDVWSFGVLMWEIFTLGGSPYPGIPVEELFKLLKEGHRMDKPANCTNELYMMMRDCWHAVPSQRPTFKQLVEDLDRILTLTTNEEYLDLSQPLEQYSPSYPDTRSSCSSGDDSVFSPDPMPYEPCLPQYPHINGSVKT
Chain of Fibroblast growth factor receptor 1 (Homo sapiens, UniProt P11362, V561M) (P11362 22-822 V561M limits assumed): as the sequence (P11362 22-822 limits assumed) above, with V540M counted along it
Chain of Fibroblast growth factor receptor 3 (P22607 whole entry): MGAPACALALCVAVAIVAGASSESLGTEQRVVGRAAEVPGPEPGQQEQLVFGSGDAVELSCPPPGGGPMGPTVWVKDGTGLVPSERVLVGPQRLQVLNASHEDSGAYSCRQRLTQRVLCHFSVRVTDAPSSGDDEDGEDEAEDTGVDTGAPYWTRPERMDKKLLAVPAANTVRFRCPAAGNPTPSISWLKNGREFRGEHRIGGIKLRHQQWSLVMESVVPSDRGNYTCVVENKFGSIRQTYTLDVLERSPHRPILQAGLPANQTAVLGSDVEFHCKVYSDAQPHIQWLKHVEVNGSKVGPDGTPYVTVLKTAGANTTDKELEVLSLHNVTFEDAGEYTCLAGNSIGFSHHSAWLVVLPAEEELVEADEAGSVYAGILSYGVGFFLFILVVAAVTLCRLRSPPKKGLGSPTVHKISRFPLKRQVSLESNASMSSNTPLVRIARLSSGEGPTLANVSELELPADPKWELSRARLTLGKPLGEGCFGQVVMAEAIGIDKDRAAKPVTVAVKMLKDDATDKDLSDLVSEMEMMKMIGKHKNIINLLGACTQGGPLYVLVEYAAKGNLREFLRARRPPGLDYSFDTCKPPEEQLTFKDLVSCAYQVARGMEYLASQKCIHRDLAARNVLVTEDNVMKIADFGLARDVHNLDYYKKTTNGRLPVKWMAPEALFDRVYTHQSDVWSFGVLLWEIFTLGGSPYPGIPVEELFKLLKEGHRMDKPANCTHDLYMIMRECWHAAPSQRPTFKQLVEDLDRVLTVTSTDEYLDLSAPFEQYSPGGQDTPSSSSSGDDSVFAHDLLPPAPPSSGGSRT

IC50 [1]: 0.0136 µM
IC50 [2]: 0.0526 µM
solubility kinetic [3]: 0.05 mg/mL (≈ 116 µM)
Stability [4]: Stable
Activity [5]: 65%
inhibition [6]: Active
IC50 [7]: > 5 µM
IC50 [8]: 0.016 µM
IC50 (NCI-H1581 [9]): 0.0549 µM
IC50 (NCI-H716): 0.0032 µM
IC50 (NCI-H2228): > 10 µM
IC50 (NCI-H1792): > 10 µM
IC50 (NCI-H1666): > 10 µM
IC50 (NCI-H727): > 10 µM
IC50 (NCI-H226): > 10 µM
IC50 (HCC4006): > 10 µM
IC50 (ASPC1): > 10 µM
IC50 (BXPC-3): > 10 µM
IC50 (A549): > 10 µM
IC50 (NCI-H1299): > 10 µM
AUC(0-t) at 24 h [10]: 0.115 µg·h/mL
AUC(0-inf) [11]: 0.0754 µg·h/mL
half-life [12]: 55.9 min
inhibition [14]: 102%
SMILES: C=CC(=O)N1CCCC(n2nc3c(=O)[nH]nc(N)c3c2-c2oc3ccc(C)cc3c2C)C1 (configuration not stated)
IC50 (Hs746T): > 10 µM
Activity (NCI-H1581 [13]): Dose-Dependent Effect
Activity (SNU-16): 68.4%
